Measurements as given in patent US20250127162A1, “METHODS AND COMPOSITIONS FOR CONTROLLING PESTS IN RICE” (Globachem NV, priority 2022, published 2025).

Tested on: Diabrotica speciosa
Assay: Dry bean field trials, Diabrotica speciosa damage and yield (Example 4)
Format: in vivo
Conditions: 150 L water/ha, two applications 7 d apart; for % Damage, % UNCK: 28 DAB, Lambda-cyhalothrin 100 at 0.15 L/ha; for Yield: plot
Excerpt: All applications were made with an EC formulation containing 650 g/L of pelargonic acid (e.g., 685 g/L of 95% purity pelargonic acid), an anionic emulsifier and a branched fatty acid ester solvent.
Diabrotica speciosa is a major pest in rice.
Dry Beans—Diabrotica speciosa

CC1(C)[C@H](C(=O)O[C@H](C#N)c2cccc(Oc3ccccc3)c2)[C@@H]1/C=C(\Cl)C(F)(F)F (racemic) [Lambda-cyhalothrin 100, Lambda-cyhalothrin, reference compound]
% Damage, % UNCK (Trial 1, dry bean): 80.55b % UNCK | Yield (Trial 1, dry bean): 2.55a Ton/ha | % Damage, % UNCK (Trial 2, dry bean): 81.41c % UNCK | Yield (Trial 2, dry bean): 2.29ab Ton/ha
